Marks after values point to notes of the source that are not given here.
What was measured:
[1] = system: hepatic fibrosis in male Wistar rats (CCl4); experiment: Reverting hepatic fibrosis induced by carbon tetrachloride (CCl4) in rats (Example 2); format: in vivo, rat; parameters: SODt (oxidative stress marker) / Catalase (oxidative stress marker) / HPT (oxidative stress marker) / MDA (oxidative stress marker): unit not given here; conditions: for GOT serum level / GPT serum level / OH—P Content (hydroxiproline) in the liver / Grade 0 (null) bridging fibro-proliferative reaction in liver, animals per group / Grade 1 (moderate, up to 25% of the slide), animals per group / Grade 2 (limited, up to 50% of the slide), animals per group / Grade 3 (severe, up to the 75% of the slide), animals per group / Grade 4 (very severe, over 75% of the slide), animals per group: four weeks; for GOT serum level / GPT serum level / OH—P Content (hydroxiproline) in the liver: end of treatment; for Grade 0 (null) bridging fibro-proliferative reaction in liver, animals per group / Grade 1 (moderate, up to 25% of the slide), animals per group / Grade 2 (limited, up to 50% of the slide), animals per group / Grade 3 (severe, up to the 75% of the slide), animals per group / Grade 4 (very severe, over 75% of the slide), animals per group: n = 15; for Catalase (oxidative stress marker) / HPT (oxidative stress marker) / MDA (oxidative stress marker) / SODt (oxidative stress marker): liver samples, end of the third week of treatment
Method: This experiment was conducted to evaluate the effect of the pharmaceutical composition containing the GHRP-6 on reverting hepatic fibrosis in rats, wherein said hepatic fibrosis was induced by carbon tetrachloride (CCl4). This is a hepatotoxic agent that causes chronic hepatitis and fibrosis after long-term administration. Hepatic fibrosis was induced in male Wistar rats of 250 g of body weight by intraperitoneally administered CCl4 50%/50% (v/v) in olive oil, twice per week during four weeks. After that time, 25% of the rats were sacrificed and subjected to blood biochemistry and pathological anatomy studies. […] The animals remaining were randomly distributed into three experimental groups of 15 rats each: (1) Control placebo group, receiving physiological saline solution, (2) Group receiving the GHRP-6 at a 100 μg/kg dosage, and (3) Group receiving the GHRP-6 at a 400 μg/kg dosage. […] Treatments were started immediately after the fibrosis established and the suspension of CCl4 administration. […] Liver fragments were fixed in formalin neutral and processed by hematoxylin/eosin staining, or by Masson's trichromic staining, to evaluate the general damage and the severity of fibrotic indurations. Other fragments of liver tissues were stored at −70° C. until processing to determine the content of hydroxiproline by acid hydrolysis in 1N HCl, and also the intrahepatic levels of redox metabolism markers. Biochemical determinations were carried out by calculating the total protein content by the Bradford's method. The response to the treatment with the pharmaceutical composition was characterized by determining the serum levels of GOT and GPT transaminases, histological criteria in quantitative scale and some markers distinctive of the levels of lipid peroxidation.

[2] = system: human keloid fragments xeno-transplanted in athymic mice; experiment: Human keloid fragments xeno-transplanted into athymic mice (Example 7); format: in vivo, mouse
Text: To study the effect of peptides GHRP-6, GHRP-2, Hexarelin and/or Ghrelin in eradicating the pathological deposits of physiological material in the skin, human keloid fragments were xeno-transplanted into the dorsal region in athymic mice. After 72 hrs of evolution, to corroborate grafting and viability of xeno-transplants, the animals (N=6) were randomly distributed into the following experimental groups: • A—Saline control group (vehicle of the active principles). • B—Group receiving GHRP-6. • C—Group receiving GHRP-2. • D—Group receiving Ghrelin. • E—Group receiving Hexarelin. • Treatments were applied once every 24 hrs during 7 days. The substances were infiltrated at the edges in the implants, for local bioavailability of the active principles, at dosages from 5 micrograms to 1 milligram. After the treatment period, the animals were sacrificed and the implants extracted to evaluate the pharmacological response to every substance. Samples were weighed and fragmented for histological studies and biochemical determinations of collagen. The fragments for histological studies were fixed in 10% formalin neutral, and those fragments for biochemical analyses were stored at −70° C. • The parameters studied were: • a—Wet weight of the graft collected. • b—Hydroxiproline content in the tissue. • c—Number of microscopic fields with tissue positive to Picrosirius red staining and trichromic Masson's staining.

[3] = system: hepatic fibrosis in male Wistar rats (bile duct ligation); experiment: Reverting hepatic fibrosis induced by ligation of the common bile duct in rats (Example 1); format: in vivo, rat; parameters: SODt (oxidative stress marker) / Catalase (oxidative stress marker) / HPT (oxidative stress marker) / MDA (oxidative stress marker): unit not given here; conditions: for Grade 0 (null) hepatic fibrosis, animals per group / Grade 1 (moderate) hepatic fibrosis, animals per group / Grade 2 (limited) hepatic fibrosis, animals per group / Grade 3 (severe) hepatic fibrosis, animals per group / Grade 4 (very severe) hepatic fibrosis, animals per group: three weeks; for GGT serum level / GOT serum level / GPT serum level / Content of OH—P (hydroxiproline) in liver: end of three weeks of treatment; for Catalase (oxidative stress marker) / HPT (oxidative stress marker) / MDA (oxidative stress marker) / SODt (oxidative stress marker): liver samples, end of third week of treatment
Method: The present experiment was conducted to evaluate the effect of the GHRP-6-based pharmaceutical composition on reverting the hepatic fibrosis in rats. Hepatic fibrosis was induced in male Wistar rats of 250 g of average body weight by ligating the external bile duct. For this purpose, rats were anesthetized with a ketamine/xylazine combination and subjected to laparotomy to expose the common bile duct. The duct was double-ligated with chromium catgut 4-0. After surgery, animals were randomly distributed into 3 experimental groups of 20 rats each: (1) Control placebo group, receiving physiological saline solution, (2) Group receiving the GHRP-6 at a 100 μg/kg dosage, and (3) Group receiving the GHRP-6 at a 400 μg/kg dosage. Treatments were daily administered during three weeks after inducing the fibrosis of the liver parenchyma. All the treatments were started three weeks after the appearance of fibrosis. The follow up of the hepatic damage was conducted by weekly ultrasound examinations of the projection area of this organ, the progress of serum levels of GOT and GPT transaminases, gamma glutamyl transferase (GGT) levels and the volume of ascitis. Treatments with GHRP-6 or placebo were applied by the intraperitoneal route once daily. When treatments concluded, animals were sacrificed and blood serum and the liver were collected. Liver fragments were fixed in formalin neutral and processed by hematoxylin/eosin staining, or by Masson's trichromic staining, to evaluate the general damage and the severity of fibrotic indurations. Other fragments of liver tissues were stored at −70° C. until processing to determine the content of hydroxiproline by acid hydrolysis in 1N HCl, and also the intrahepatic levels of redox metabolism markers. Biochemical determinations were carried out by calculating the total protein content by the Bradford's method.

[4] = Dosage II: 400 μg/kg once daily
[5] = infiltrated at the edges in the implants once every 24 hrs during 7 days, 5 micrograms to 1 milligram
[6] = Dosage I: 100 μg/kg i.p. once daily, N = 16
[7] = Dosage I: 100 μg/kg i.p. once daily
[8] = Dosage II: 400 μg/kg i.p. once daily, N = 20
[9] = Dosage II: 400 μg/kg i.p. once daily

GHRP-6
GOT serum level ([1]; Dosage I: 100 μg/kg once daily): 56.31 ± 12.19 IU/l | GPT serum level ([1]; Dosage I: 100 μg/kg once daily): 77.15 ± 22.66 IU/l | OH—P Content (hydroxiproline) in the liver ([1]; Dosage I: 100 μg/kg once daily): 40.21 ± 3.54 μg/g of total proteins | Grade 0 (null) bridging fibro-proliferative reaction in liver, animals per group ([1]; Dosage I: 100 μg/kg once daily): 0 | Grade 1 (moderate, up to 25% of the slide), animals per group ([1]; Dosage I: 100 μg/kg once daily): 9 | Grade 2 (limited, up to 50% of the slide), animals per group ([1]; Dosage I: 100 μg/kg once daily): 6* | Grade 3 (severe, up to the 75% of the slide), animals per group ([1]; Dosage I: 100 μg/kg once daily): 0 | Grade 4 (very severe, over 75% of the slide), animals per group ([1]; Dosage I: 100 μg/kg once daily): 0 | GOT serum level [1, 4]: 28.18 ± 4.71 IU/l | GPT serum level [1, 4]: 26.94 ± 12.42 IU/l | OH—P Content (hydroxiproline) in the liver [1, 4]: 10.22 ± 4.33 μg/g of total proteins | Grade 0 (null) bridging fibro-proliferative reaction in liver, animals per group [1, 4]: 8* | Grade 1 (moderate, up to 25% of the slide), animals per group [1, 4]: 7 | Grade 2 (limited, up to 50% of the slide), animals per group [1, 4]: 0 | Grade 3 (severe, up to the 75% of the slide), animals per group [1, 4]: 0 | Grade 4 (very severe, over 75% of the slide), animals per group [1, 4]: 0 | Catalase (oxidative stress marker) ([1]; Dosage I: 100 μg/kg): 60.43 ± 11.81 | HPT (oxidative stress marker) ([1]; Dosage I: 100 μg/kg): 55.11 ± 2.77 | MDA (oxidative stress marker) ([1]; Dosage I: 100 μg/kg): 0.16 ± 1.16 | SODt (oxidative stress marker) ([1]; Dosage I: 100 μg/kg): 17632.08 ± 321.55 | Catalase (oxidative stress marker) ([1]; Dosage II: 400 μg/kg): 22.67 ± 3.56 | HPT (oxidative stress marker) ([1]; Dosage II: 400 μg/kg): 26.44 ± 2.43 | MDA (oxidative stress marker) ([1]; Dosage II: 400 μg/kg): 0.09 ± 0.01 | SODt (oxidative stress marker) ([1]; Dosage II: 400 μg/kg): 20187.87 ± 245.13 | Deposition of collagenous and extracellular matrix materials in the liver parenchyma (overall result) ([1]; repeated CCl4 administration): eradicate and control deposition of collagenous and extracellular matrix materials | Hepatocytes death ([1]; repeated CCl4 administration): prevents individual, focal and pericentrolobular hepatocytes death | No. of fields positive to collagen-specific staining ([2]; Picrosirius red and trichromic Masson's staining, 4× and 10× averaged, infiltrated once every 24 hrs during 7 days): 11.45 | No. of microscopic fields with mast cells (20X magnif.) ([2]; aniline blue staining, infiltrated once every 24 hrs during 7 days): 9.54 ± 2.15 | Hydroxiproline content in the tissue [2, 5]: 88.27 ± 4.61 µg/g | Wet weight of the graft collected [2, 5]: 6.71 ± 1.18 a grams | Grade 0 (null) hepatic fibrosis, animals per group [3, 6]: 5 | Grade 1 (moderate) hepatic fibrosis, animals per group [3, 6]: 9 | Grade 2 (limited) hepatic fibrosis, animals per group [3, 6]: 2 | Grade 3 (severe) hepatic fibrosis, animals per group [3, 6]: 0 | Grade 4 (very severe) hepatic fibrosis, animals per group [3, 6]: 0 | GGT serum level [3, 7]: 71.53 ± 22.14 U/I | GOT serum level [3, 7]: 61.58 ± 16.10 IU/I | GPT serum level [3, 7]: 81.71 ± 30.90 IU/I | Content of OH—P (hydroxiproline) in liver [3, 6]: 56.71 ± 8.11 μg/g of total proteins | Grade 0 (null) hepatic fibrosis, animals per group [3, 8]: 8 | Grade 1 (moderate) hepatic fibrosis, animals per group [3, 8]: 11 | Grade 2 (limited) hepatic fibrosis, animals per group [3, 8]: 1 | Grade 3 (severe) hepatic fibrosis, animals per group [3, 8]: 0 | Grade 4 (very severe) hepatic fibrosis, animals per group [3, 8]: 0 | GGT serum level [3, 9]: 25.56 ± 8.63 U/I | GOT serum level [3, 9]: 30.41 ± 6.11 IU/I | GPT serum level [3, 9]: 60.64 ± 19.87 IU/I | Content of OH—P (hydroxiproline) in liver [3, 8]: 16.15 ± 1.025 μg/g of total proteins | Deposit of collagenous and extracellular materials in liver parenchyma (overall result) ([3]; ligation of the common bile duct, morphological and biochemical data): eradicate and control the deposit of collagenous and extracellular materials in liver parenchyma | Catalase (oxidative stress marker) ([3]; Dosage I: 100 μg/kg): 68.50 ± 12.73 | HPT (oxidative stress marker) ([3]; Dosage I: 100 μg/kg): 43.06 ± 1.83 | MDA (oxidative stress marker) ([3]; Dosage I: 100 μg/kg): 0.14 ± 0.02 | SODt (oxidative stress marker) ([3]; Dosage I: 100 μg/kg): 11058.07 ± 744.61 | Catalase (oxidative stress marker) ([3]; Dosage II: 400 μg/kg): 31.50 ± 4.3 | HPT (oxidative stress marker) ([3]; Dosage II: 400 μg/kg): 21.16 ± 1.71 | MDA (oxidative stress marker) ([3]; Dosage II: 400 μg/kg): 0.08 ± 0.01 | SODt (oxidative stress marker) ([3]; Dosage II: 400 μg/kg): 21029.87 ± 498.28

Reference: patent publication US8722626B2, “Method for controlling fibrosis and other pathological deposits in tissues comprising administering a GHRP-6 composition” (Centro de Ingenieria Genetica y Biotecnologia, priority 2006, dated 2014)
